Calls of active or inactive are those of the source. No cut-off for these calls is given here.
Legend:
[1] = molecular target: Proto-oncogene tyrosine-protein kinase Src (Homo sapiens) (UniProt P12931); experiment: Inhibition of SRC (unknown origin) at 1 uM relative to control
[2] = Cmax in Sprague-Dawley rat at 1 mg/kg, iv measured upto 8 hrs by LC-MS analysis; format: ADME, organism-based; conditions: in vivo
[3] = molecular target: SRSF protein kinase 1 (Homo sapiens) (UniProt Q96SB4); experiment: Inhibition of SRPK1 (unknown origin) at 1 uM relative to control
[4] = molecular target: Serine/threonine-protein kinase DCLK2 (Homo sapiens) (UniProt Q8N568); experiment: Inhibition of DCAMKL2 (unknown origin) at 1 uM relative to control
[5] = tested on: Mus musculus; experiment: Antiarthritic activity against collagen-induced arthritis DBA/1J mouse model assessed as KC/GRO level in serum at 50 mg/kg, po measured for 4 hrs by luminex analysis (reference value: 73.6 +/- 18.6 ng/ml); format: functional
[6] = Cmax in Sprague-Dawley rat at 5 mg/kg, po measured upto 24 hrs by LC-MS analysis; format: ADME, organism-based; conditions: in vivo
[7] = molecular target: Epidermal growth factor receptor (Homo sapiens) (UniProt P00533); experiment: Inhibition of EGFR (unknown origin) at 1 uM relative to control
Sequence of Epidermal growth factor receptor (Homo sapiens) (P00533 whole entry): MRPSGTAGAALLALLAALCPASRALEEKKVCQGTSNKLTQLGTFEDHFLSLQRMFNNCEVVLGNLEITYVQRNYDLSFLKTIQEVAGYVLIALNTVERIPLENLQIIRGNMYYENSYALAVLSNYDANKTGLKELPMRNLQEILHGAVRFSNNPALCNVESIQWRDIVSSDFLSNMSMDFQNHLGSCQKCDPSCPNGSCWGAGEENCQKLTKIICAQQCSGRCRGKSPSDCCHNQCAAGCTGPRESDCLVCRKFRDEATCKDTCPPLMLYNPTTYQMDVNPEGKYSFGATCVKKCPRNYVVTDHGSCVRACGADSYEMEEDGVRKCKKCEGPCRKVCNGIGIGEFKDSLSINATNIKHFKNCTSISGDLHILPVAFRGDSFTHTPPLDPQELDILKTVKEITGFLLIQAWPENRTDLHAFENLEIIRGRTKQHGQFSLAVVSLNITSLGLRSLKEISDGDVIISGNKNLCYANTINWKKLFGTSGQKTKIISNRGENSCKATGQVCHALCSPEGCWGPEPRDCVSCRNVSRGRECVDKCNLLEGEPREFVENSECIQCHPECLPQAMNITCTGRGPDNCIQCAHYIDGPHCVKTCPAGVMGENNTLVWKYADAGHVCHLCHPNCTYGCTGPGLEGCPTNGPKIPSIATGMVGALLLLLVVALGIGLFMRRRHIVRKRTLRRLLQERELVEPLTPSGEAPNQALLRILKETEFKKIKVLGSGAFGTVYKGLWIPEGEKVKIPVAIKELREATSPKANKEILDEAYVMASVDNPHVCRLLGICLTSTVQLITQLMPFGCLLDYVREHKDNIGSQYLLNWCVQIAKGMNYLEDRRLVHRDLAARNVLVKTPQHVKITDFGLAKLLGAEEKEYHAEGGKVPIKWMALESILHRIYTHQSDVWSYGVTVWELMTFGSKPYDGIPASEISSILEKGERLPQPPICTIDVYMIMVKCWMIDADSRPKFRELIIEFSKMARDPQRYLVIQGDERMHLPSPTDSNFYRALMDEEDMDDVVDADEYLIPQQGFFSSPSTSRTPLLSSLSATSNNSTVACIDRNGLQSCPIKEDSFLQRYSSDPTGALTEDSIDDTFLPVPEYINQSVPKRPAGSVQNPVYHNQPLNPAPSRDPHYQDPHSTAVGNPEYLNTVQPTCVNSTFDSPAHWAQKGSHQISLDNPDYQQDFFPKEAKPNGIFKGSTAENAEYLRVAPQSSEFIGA

[8] = molecular target: Mitogen-activated protein kinase kinase kinase 9 (Homo sapiens) (UniProt P80192); experiment: Inhibition of MLK1 (unknown origin) at 1 uM relative to control
Sequence of Mitogen-activated protein kinase kinase kinase 9 (Homo sapiens) (P80192 whole entry, looked up): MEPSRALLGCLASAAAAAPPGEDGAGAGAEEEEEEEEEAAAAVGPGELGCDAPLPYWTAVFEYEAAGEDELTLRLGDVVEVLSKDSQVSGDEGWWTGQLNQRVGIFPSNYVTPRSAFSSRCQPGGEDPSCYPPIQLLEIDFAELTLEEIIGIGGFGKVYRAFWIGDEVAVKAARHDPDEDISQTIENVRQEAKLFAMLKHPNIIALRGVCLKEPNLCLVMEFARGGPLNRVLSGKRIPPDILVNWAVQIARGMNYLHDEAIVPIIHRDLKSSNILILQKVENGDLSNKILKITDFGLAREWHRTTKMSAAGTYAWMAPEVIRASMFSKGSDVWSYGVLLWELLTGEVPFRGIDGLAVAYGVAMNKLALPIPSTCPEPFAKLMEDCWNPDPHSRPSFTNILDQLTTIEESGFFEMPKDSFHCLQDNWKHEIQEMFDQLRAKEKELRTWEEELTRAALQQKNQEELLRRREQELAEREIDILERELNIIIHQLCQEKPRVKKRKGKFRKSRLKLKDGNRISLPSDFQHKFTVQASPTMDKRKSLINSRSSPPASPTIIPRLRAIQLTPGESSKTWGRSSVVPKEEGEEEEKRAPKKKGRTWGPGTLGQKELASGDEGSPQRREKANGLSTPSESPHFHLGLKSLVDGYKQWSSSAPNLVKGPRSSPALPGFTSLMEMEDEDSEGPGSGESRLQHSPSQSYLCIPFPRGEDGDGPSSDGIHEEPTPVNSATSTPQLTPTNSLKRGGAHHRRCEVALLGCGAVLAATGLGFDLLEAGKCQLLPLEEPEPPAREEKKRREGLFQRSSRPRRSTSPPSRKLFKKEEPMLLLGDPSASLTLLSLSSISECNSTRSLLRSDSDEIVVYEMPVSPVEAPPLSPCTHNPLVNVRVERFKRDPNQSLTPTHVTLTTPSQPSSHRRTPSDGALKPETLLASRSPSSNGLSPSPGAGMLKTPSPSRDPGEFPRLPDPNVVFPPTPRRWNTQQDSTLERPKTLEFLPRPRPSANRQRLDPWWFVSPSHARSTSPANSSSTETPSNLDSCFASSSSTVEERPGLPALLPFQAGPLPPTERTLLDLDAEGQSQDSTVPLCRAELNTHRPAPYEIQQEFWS

[9] = molecular target: Serine/threonine-protein kinase MARK1 (Homo sapiens) (UniProt Q9P0L2); experiment: Inhibition of MARK1 (unknown origin) at 1 uM relative to control
[10] = molecular target: Serine/threonine-protein kinase haspin (Homo sapiens) (UniProt Q8TF76); experiment: Inhibition of Haspin (unknown origin) at 1 uM relative to control
[11] = molecular target: Casein kinase I isoform gamma-2 (Homo sapiens, UniProt P78368); experiment: Inhibition of CSNK1G2 (unknown origin)
[12] = molecular target: Serine/threonine-protein kinase PAK 6 (Homo sapiens, UniProt Q9NQU5); experiment: Inhibition of PAK6 (unknown origin)
Sequence of Serine/threonine-protein kinase PAK 6 (Q9NQU5 whole entry): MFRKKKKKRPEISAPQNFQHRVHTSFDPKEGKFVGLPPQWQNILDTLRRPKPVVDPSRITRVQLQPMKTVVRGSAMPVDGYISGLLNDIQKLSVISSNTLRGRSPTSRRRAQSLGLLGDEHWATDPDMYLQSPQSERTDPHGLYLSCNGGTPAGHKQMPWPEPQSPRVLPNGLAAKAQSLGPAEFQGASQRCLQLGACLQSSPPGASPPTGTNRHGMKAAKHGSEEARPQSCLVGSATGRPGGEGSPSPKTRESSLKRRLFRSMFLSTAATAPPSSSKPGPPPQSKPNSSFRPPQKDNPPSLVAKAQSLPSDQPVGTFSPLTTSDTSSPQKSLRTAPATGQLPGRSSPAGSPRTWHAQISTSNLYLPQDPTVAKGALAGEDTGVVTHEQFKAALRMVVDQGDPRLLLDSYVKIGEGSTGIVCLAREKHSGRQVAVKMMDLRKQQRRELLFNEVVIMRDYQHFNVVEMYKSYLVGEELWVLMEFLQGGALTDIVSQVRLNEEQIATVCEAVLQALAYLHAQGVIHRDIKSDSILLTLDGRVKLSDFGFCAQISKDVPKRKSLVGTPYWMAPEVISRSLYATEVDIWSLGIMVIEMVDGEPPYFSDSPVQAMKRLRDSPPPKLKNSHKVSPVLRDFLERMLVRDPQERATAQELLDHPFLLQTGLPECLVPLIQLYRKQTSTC

[13] = tested on: Mus musculus; experiment: Antiarthritic activity against collagen-induced arthritis DBA/1J mouse model assessed as reduction in MX1 level in whole blood at 50 mg/kg, po measured for 2 weeks by luminex analysis; format: functional, organism-based
[14] = Half life in CD-1 mouse at 5 mg/kg, po measured upto 24 hrs by LC-MS analysis; format: ADME, organism-based; conditions: in vivo
[15] = tested on: RPMI-8226; experiment: Inhibition of human […] cell differentiation assessed as effect on IL-4 mRNA expression at 0.1 to 1 uM by RT-PCR analysis; format: functional, cell-based; conditions: dose 0.1-1 µM
[16] = tested on: BaF3; experiment: Antiproliferative activity against mouse BaF3 cells assessed as IL-3-induced inhibition of cell growth incubated for 40 hrs; format: functional, cell-based; conditions: BaF3, 40 h
[17] = molecular target: Tyrosine-protein kinase SYK (Homo sapiens, UniProt P43405); experiment: Inhibition of SYK (unknown origin)
[18] = molecular target: Ribosomal protein S6 kinase alpha-4 (Homo sapiens) (UniProt O75676); experiment: Inhibition of MSK2 (unknown origin) at 1 uM relative to control
[19] = molecular target: Serine/threonine-protein kinase NLK (Homo sapiens) (UniProt Q9UBE8); experiment: Inhibition of NLK (unknown origin) at 1 uM relative to control
[20] = molecular target: Serine/threonine-protein kinase Nek6 (Homo sapiens) (UniProt Q9HC98); experiment: Inhibition of NEK6 (unknown origin) at 1 uM relative to control
[21] = molecular target: Serine/threonine-protein kinase TAO1 (Homo sapiens) (UniProt Q7L7X3); experiment: Inhibition of TAO1 (unknown origin) at 1 uM relative to control
[22] = tested on: Rattus norvegicus; experiment: Antiarthritic activity against collagen-induced arthritis Dark Agouti rat model assessed as reduction in inflammatory infiltration at 1 mg/kg, po administered 3 times a week and measured on day 7; format: functional, organism-based; conditions: time 7.0 day
[23] = tested on: Mus musculus; experiment: Antiarthritic activity against collagen-induced arthritis DBA/1J mouse model assessed as reduction in IL-1beta expression at 50 mg/kg, po measured for 4 hrs; format: functional, organism-based
[24] = tested on: Mus musculus; experiment: Antiarthritic activity against collagen-induced arthritis DBA/1J mouse model assessed as reduction in XCL1 level in serum at 50 mg/kg, po measured for 4 hrs by luminex analysis; format: functional, organism-based
[25] = molecular target: Interleukin-1 receptor-associated kinase 1 (Homo sapiens) (UniProt P51617); experiment: Inhibition of IRAK1 (unknown origin) at 1 uM relative to control
[26] = molecular target: Rhodopsin kinase GRK7 (Homo sapiens) (UniProt Q8WTQ7); experiment: Inhibition of GRK7 (unknown origin) at 1 uM relative to control
Sequence of Rhodopsin kinase GRK7 (Homo sapiens) (Q8WTQ7 whole entry): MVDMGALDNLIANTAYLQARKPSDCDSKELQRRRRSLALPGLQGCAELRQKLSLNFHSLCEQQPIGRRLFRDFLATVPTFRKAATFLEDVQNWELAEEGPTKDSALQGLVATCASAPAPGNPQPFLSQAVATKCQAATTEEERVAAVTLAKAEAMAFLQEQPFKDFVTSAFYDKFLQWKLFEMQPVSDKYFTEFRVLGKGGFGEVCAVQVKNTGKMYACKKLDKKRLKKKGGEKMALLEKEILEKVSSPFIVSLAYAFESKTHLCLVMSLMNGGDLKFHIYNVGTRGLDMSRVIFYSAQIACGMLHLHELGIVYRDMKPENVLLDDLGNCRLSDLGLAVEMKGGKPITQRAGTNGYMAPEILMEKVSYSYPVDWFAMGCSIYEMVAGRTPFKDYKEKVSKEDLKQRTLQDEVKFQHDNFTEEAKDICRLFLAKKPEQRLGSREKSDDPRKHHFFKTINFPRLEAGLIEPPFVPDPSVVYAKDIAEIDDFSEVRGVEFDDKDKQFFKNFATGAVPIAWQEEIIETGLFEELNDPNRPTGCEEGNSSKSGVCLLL

[27] = tested on: Mus musculus; experiment: Antiarthritic activity against collagen-induced arthritis DBA/1J mouse model assessed as IL-1alpha level in serum at 50 mg/kg, po measured for 4 hrs by luminex analysis (reference value: 359 +/- 83.8 ng/ml); format: functional
[28] = Half life in CD-1 mouse at 1 mg/kg, iv measured upto 8 hrs by LC-MS analysis; format: ADME, organism-based; conditions: in vivo
[29] = molecular target: Insulin receptor-related protein (Homo sapiens) (UniProt P14616); experiment: Inhibition of IRR (unknown origin) at 1 uM relative to control
[30] = organism: Homo sapiens; experiment: Inhibition of PhK2 (unknown origin) at 1 uM relative to control
[31] = molecular target: Death-associated protein kinase 1 (Homo sapiens, UniProt P53355); experiment: Inhibition of DAPK1 (unknown origin)
[32] = Cmax in CD-1 mouse at 5 mg/kg, po measured upto 24 hrs by LC-MS analysis; format: ADME, organism-based; conditions: in vivo
[33] = molecular target: Serine/threonine-protein kinase PLK2 (Homo sapiens) (UniProt Q9NYY3); experiment: Inhibition of Snk (unknown origin) at 1 uM relative to control
[34] = molecular target: Serine/threonine-protein kinase 33 (Homo sapiens) (UniProt Q9BYT3); experiment: Inhibition of STK33 (unknown origin) at 1 uM relative to control
[35] = molecular target: Mitogen-activated protein kinase kinase kinase 7 (Homo sapiens, UniProt O43318); experiment: Inhibition of TAK1 (unknown origin)
Sequence of Mitogen-activated protein kinase kinase kinase 7 (O43318 whole entry): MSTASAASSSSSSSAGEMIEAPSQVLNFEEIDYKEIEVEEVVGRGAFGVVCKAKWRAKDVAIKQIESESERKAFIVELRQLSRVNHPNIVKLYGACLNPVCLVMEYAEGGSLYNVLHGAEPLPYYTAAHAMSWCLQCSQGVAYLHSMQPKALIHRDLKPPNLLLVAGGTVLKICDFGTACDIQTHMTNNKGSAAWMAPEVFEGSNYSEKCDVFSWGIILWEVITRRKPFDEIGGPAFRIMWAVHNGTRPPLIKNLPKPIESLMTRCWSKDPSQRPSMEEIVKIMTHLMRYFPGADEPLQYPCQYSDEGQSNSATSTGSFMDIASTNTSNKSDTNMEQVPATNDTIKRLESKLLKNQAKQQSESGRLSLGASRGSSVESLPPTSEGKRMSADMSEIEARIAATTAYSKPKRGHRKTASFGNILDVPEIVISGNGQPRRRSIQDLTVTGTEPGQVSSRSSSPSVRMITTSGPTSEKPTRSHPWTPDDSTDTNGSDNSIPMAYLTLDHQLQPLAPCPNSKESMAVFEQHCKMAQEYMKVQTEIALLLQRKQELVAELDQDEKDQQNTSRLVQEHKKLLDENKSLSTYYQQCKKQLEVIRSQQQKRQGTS

[36] = molecular target: Serine/threonine-protein kinase D1 (Homo sapiens) (UniProt Q15139); experiment: Inhibition of PKC-mu (unknown origin) at 1 uM relative to control
[37] = molecular target: Proto-oncogene tyrosine-protein kinase receptor Ret (Homo sapiens) (UniProt P07949); experiment: Inhibition of Ret (unknown origin) at 1 uM relative to control
[38] = molecular target: Tyrosine-protein kinase ITK/TSK (Homo sapiens) (UniProt Q08881); experiment: Inhibition of Itk (unknown origin) at 1 uM relative to control
Sequence of Tyrosine-protein kinase ITK/TSK (Homo sapiens) (Q08881 whole entry): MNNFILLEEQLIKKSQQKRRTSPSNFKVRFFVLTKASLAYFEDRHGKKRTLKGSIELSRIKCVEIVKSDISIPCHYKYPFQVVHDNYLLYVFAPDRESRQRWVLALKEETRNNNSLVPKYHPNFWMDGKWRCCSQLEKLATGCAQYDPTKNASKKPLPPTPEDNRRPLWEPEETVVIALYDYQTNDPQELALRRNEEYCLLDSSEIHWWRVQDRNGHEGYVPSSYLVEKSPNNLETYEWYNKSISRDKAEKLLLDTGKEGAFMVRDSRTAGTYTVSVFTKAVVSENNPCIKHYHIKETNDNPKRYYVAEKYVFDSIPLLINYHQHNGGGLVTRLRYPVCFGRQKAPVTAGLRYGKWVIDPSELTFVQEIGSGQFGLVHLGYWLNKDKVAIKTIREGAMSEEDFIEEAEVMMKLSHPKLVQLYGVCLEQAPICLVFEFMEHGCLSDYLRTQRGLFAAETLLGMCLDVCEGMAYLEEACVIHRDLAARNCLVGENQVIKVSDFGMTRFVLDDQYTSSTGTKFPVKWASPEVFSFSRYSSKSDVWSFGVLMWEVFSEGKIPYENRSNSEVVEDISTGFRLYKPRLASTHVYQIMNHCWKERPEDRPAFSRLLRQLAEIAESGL

[39] = Clearance in CD-1 mouse at 1 mg/kg, iv measured upto 8 hrs by LC-MS analysis; format: ADME, organism-based; conditions: in vivo
[40] = AUC (0 to 24 hrs) in CD-1 mouse at 5 mg/kg, po measured upto 24 hrs by LC-MS analysis; format: ADME, organism-based; conditions: in vivo
[41] = tested on: Mus musculus; experiment: Antiarthritic activity against collagen-induced arthritis DBA/1J mouse model assessed as MDC level in serum at 50 mg/kg, po measured for 4 hrs by luminex analysis (reference value: 463.8 +/- 32.7 ng/ml); format: functional

O=C(Nc1nc2cccc(-c3ccc(CN4CCS(=O)(=O)CC4)cc3)n2n1)C1CC1 [FILGOTINIB]
inhibition [1]: -10%
Cmax [2]: 1410 ng/mL
inhibition [3]: 4%
inhibition [4]: 12%
Activity [5]: 33.6 ng/mL
Cmax [6]: 310 ng/mL
inhibition [7]: -5%
inhibition [8]: 1%
inhibition [9]: 7%
inhibition [10]: -6%
IC50 [11]: > 10 µM
IC50 [12]: > 10 µM
Activity [13]: inactive
half-life [14]: 1.7 h
inhibition [15]: Active
IC50 ([16]; read-out: IC50): 4.55 µM
IC50 ([16]; read-out: pIC50 (converted)): 4.57 µM
IC50 [17]: > 10 µM
inhibition [18]: 7%
inhibition [19]: -6%
inhibition [20]: -4%
inhibition [21]: -4%
Activity [22]: Active
Activity [23]: Active
Activity [24]: Active
inhibition [25]: 2%
inhibition [26]: -8%
Activity [27]: 123 ng/mL
half-life [28]: 2.5 h
inhibition [29]: -5%
inhibition [30]: -7%
IC50 [31]: > 10 µM
Cmax [32]: 920 ng/mL
inhibition [33]: 0%
inhibition [34]: -8%
IC50 [35]: > 10 µM
inhibition [36]: -10%
inhibition [37]: 9%
inhibition [38]: -4%
clearance [39]: 48.3 mL/min/kg
AUC [40]: 1890 ng·h/mL
Activity [41]: 372.4 ng/mL
